Structures can show the parent of a compound that is named as a salt.
Experiments:
[1] = Moisture uptake by dynamic vapor sorption (DVS); format: physicochemical; settings: 25° C./80% relative humidity
Experimental: DVS was measured via a SMS (Surface Measurement Systems) DVS Intrinsic.
The relative humidity at 25° C. was calibrated against deliquescence point of LiCl, Mg(NO3)2 and KCl.
Freebase Compound I was stirred with an equimolar amount of malonic acid in acetone at RT for 14.5 hrs. The slurry was subjected to vacuum drying at 50° C. for about 6 hrs. The malonate salt of Compound I was analyzed by XRPD, DSC, TGA, ^1H NMR, and DVS. […] As shown in the TGA graph, a weight loss of about 0.7% up to 130° C. was observed.
Freebase Compound I was stirred with an equimolar amount of glycolic acid in acetone at RT for 2 days, followed by vacuum drying at 50° C. for 2 hrs. The glycolate salt of Compound I was analyzed by XRPD, DSC, TGA, ^1H NMR, and DVS. […] As shown in the TGA graph, a weight loss of about 1.3% up to 120° C. was observed.

[2] = Solubility screening of malonate salt of Compound I in various solvents at RT; format: physicochemical
Experimental: The solubility of the malonate salt of Compound I as prepared according to Example 2 in various solvents at RT was measured. The malonate salt of Compound I (approximately 2 mg) was added to a 3-mL glass vial. The solvent was then added stepwise (50/50/200/200/500/1000 μL) into the vial until the solids were dissolved visually or a total volume of 2 mL was reached.

[3] = Biodistribution in plasma and brain after single oral dose in female CB17 SCID mice; format: in vivo; settings: mouse, oral 50 mg/kg, 8 h
Experimental: Female non-tumor bearing Fox Chase CB17 SCID mice were orally administered a single dose as specified in Table B1.
Brain tissues were excised and plasma was collected from all the animals receiving Compound I, or tucatinib at 1 hour, 4 hours, and 8 hours post-administration. Tucatinib was used as a reference agent. Tucatinib is a clinically approved therapy for HER2 positive breast cancer patients with brain metastases. The harvested brains were rinsed in ice-cold phosphate-buffered saline and weighed. All plasma and brain samples were stored at approximately −80° C. until thawed for LC-MS/MS analysis.
Prior to analysis, brain tissues were homogenized 1:5 with phosphate buffer. Average free brain-to-free plasma ratio (Kp,uu) was calculated from individual mice by using total concentration values determined in the brain and plasma at individual time points, or by calculating the area under the curve (AUC) and converting the values to free concentration (or AUC) with in vitro binding parameters determined in the brain (fu,b) and plasma (fu,p) as follows:
Kp,uu=Brain Concentration (or AUC)*fu,b/Plasma Concentration (or AUC)*fu,p.
Free fraction in the brain (fu,b) and in plasma (fu,p) was determined with equilibrium dialysis as follows: The brain tissue homogenate or plasma from the mice were spiked to yield a final concentration of 1 μM Compound I, or 5 μM tucatinib. Compound I and tucatinib were incubated in equilibrium dialysis plate on a shaking incubator at 37° C. with 5% CO2 at 450 rpm for 8 hours and 24 hours, respectively. Following the incubation, aliquots of the matrix and the buffer samples were sampled and the concentration of Compound I, or tucatinib were determined.
where fu,b,d is fraction unbound determined with 20% brain homogenate.

Q: Which Moisture uptake [1] does the source give for C=CC(=O)Nc1cc(Nc2cc(N3OCC[C@@H]3c3cc(F)cc(F)c3)ncn2)c(OC)cc1N1CCC(N2CCN(C3CC3)CC2)CC1 [malonate salt of Compound I] here?
A: 0.19%

Q: And the solubility ([2]; Water, RT)?
A: < 1200 µg/mL

Q: What about the solubility ([2]; organic solvent or mixture, 1,4-Dioxane, RT) of the same compound?
A: 2100 to 7000 µg/mL

Q: What about the solubility ([2]; organic solvent or mixture, 2-MeTHF, RT) of the same compound?
A: 1100 to 2200 µg/mL

Q: And the solubility ([2]; organic solvent or mixture, ACN, RT)?
A: 6000 to 18000 µg/mL

Q: What about the solubility ([2]; organic solvent or mixture, Acetone, RT) of the same compound?
A: 1100 to 2200 µg/mL

Q: What about the solubility ([2]; organic solvent or mixture, Anisole, RT) of the same compound?
A: < 900 µg/mL

Q: What about the solubility ([2]; organic solvent or mixture, CHCl3, RT) of the same compound?
A: > 40000 µg/mL

Q: What about the solubility ([2]; organic solvent or mixture, CPME, RT) of the same compound?
A: < 1100 µg/mL

Q: What about the solubility ([2]; organic solvent or mixture, DCM, RT) of the same compound?
A: 20000 to 40000 µg/mL

Q: And the solubility ([2]; organic solvent or mixture, DMSO, RT)?
A: > 40000 µg/mL

Q: And the solubility ([2]; organic solvent or mixture, EtOAc, RT)?
A: < 1000 µg/mL

Q: What about the solubility ([2]; organic solvent or mixture, EtOH, RT) of the same compound?
A: 1900 to 6300 µg/mL

Q: What about the solubility ([2]; organic solvent or mixture, IPA, RT) of the same compound?
A: < 1200 µg/mL

Q: What about the solubility ([2]; organic solvent or mixture, IPAc, RT) of the same compound?
A: < 900 µg/mL

Q: What about the solubility ([2]; organic solvent or mixture, MIBK, RT) of the same compound?
A: < 1200 µg/mL

Q: What about the solubility ([2]; organic solvent or mixture, MTBE, RT) of the same compound?
A: < 1000 µg/mL

Q: And the solubility ([2]; organic solvent or mixture, MeOH, RT)?
A: > 46000 µg/mL

Q: What about the solubility ([2]; organic solvent or mixture, THF, RT) of the same compound?
A: 2100 to 7000 µg/mL

Q: And the solubility ([2]; organic solvent or mixture, Toluene, RT)?
A: < 1000 µg/mL

Q: And the solubility ([2]; organic solvent or mixture, n-Heptane, RT)?
A: < 1100 µg/mL

Q: For Cc1cc(Nc2ncnc3ccc(NC4=NC(C)(C)CO4)cc23)ccc1Oc1ccn2ncnc2c1 [tucatinib, reference compound], which Unbound brain concentration [3] is on record?
A: below the limit of quantitation (BLOQ)

From US20260306491A1, “EGFR INHIBITOR FOR TREATING CANCERS COMPRISING ATYPICAL EGFR MUTATIONS” (ORIC Pharmaceuticals, Inc., priority 2023, published 2026)
